# Measured values reported in patent US20210113505A1, “METHODS OF TREATING HAIR RELATED CONDITIONS” (Nogra Pharma Limited, priority 2012, published 2021).
# Entries after “also recorded” stand apart in the source; their conditions may differ.
# Columns and labels:
# Type in all cases: cell-based
# [1] = system: human scalp hair follicles; assay: Hair shaft elongation of organ-cultured hair follicles
# Procedure: (§1) Details regarding tissue specimen origin used in the present example are as described in Example 2 above.
# Hair shaft length measurements of HFs were performed on individual HFs using a Zeiss inverted binocular microscope with an eyepiece measuring graticule.
# (§2) To evaluate apoptotic cells in colocalization with a proliferation marker Ki-67, a Ki-67/terminal dUTP nick-end labeling (TUNEL) double-staining method was used. Cryostat sections were fixed in paraformaldehyde and ethanol-acetic acid (2:1) and labeled with a digoxigenin-deoxy-UTP (ApopTag fluorescein in situ apoptosis detection kit; Intergen, Purchase, N.Y.) in the presence of terminal deoxynucleotidyl transferase, followed by incubation with a mouse anti-Ki-67 antiserum (1:20 in PBS overnight at 4 C; Dako, Glostrup, Denmark). TUNEL-positive cells were visualized by an antidigoxigenin fluorescein isothiocyanate-conjugated antibody (ApopTag kit), whereas Ki-67 was detected by a rhodamine-labeled goat antimouse antibody (Jackson ImmunoResearch, West Grove, Pa.). Negative controls were performed by omitting terminal deoxynucleotidyl transferase and the Ki-67 antibody. Counterstaining was performed with 4′,6-diamidino-2-phenylindole (DAPI) (Roche Molecular Biochemicals GmbH, Mannheim, Germany). Quantitative immunohistomorphometry was performed; Ki-67-, TUNEL-, or DAPI-positive cells were counted in a previously defined reference region of the HF matrix, and the percentage of Ki-67/TUNEL-positive cells were determined. Statistical analysis was performed using a two-tailed Student's t-test for unpaired samples. For meta-analysis purposes, a total of six assays (each with HFs from a different female individual) were run. In order to avoid data distortion by individual experiments, rigid exclusion criteria were defined that allowed to exclude one individual experiment (out of 5-6) per read-out parameter. Since these exclusion criteria differed for each study parameter, different experiments (i.e. one out of 6) were excluded for each assay parameter. […]
# [2] = system: human scalp hair follicles; assay: HF cycle staging (anagen/catagen) of organ-cultured hair follicles; conditions: all concentrations, pooled data
# Procedure: as §1
# HF cycle staging was carried out according to previously defined morphological criteria, and the percentage of HFs in anagen and early, mid, or late catagen was determined.
# To evaluate apoptotic cells in colocalization with a proliferation marker Ki-67, a Ki-67/terminal dUTP nick-end labeling (TUNEL) double-staining method was used. […] TUNEL-positive cells were visualized by an antidigoxigenin fluorescein isothiocyanate-conjugated antibody (ApopTag kit), whereas Ki-67 was detected by a rhodamine-labeled goat antimouse antibody (Jackson ImmunoResearch, West Grove, Pa.). […] Quantitative immunohistomorphometry was performed; Ki-67-, TUNEL-, or DAPI-positive cells were counted in a previously defined reference region of the HF matrix, and the percentage of Ki-67/TUNEL-positive cells were determined. […] In order to avoid data distortion by individual experiments, rigid exclusion criteria were defined that allowed to exclude one individual experiment (out of 5-6) per read-out parameter. […]
# K19 expression = assay: K19 quantitative immunohistochemistry in organ-cultured human scalp hair follicles; conditions: human scalp HF organ culture; for number of K19-positive cells relative to control: cells in the ORS
# Procedure: (§3) Normal human scalp skin was obtained from 6 women undergoing routine face-lift surgery after informed consent. All experiments were performed according to Helsinki guidelines, with appropriate ethics committee approval.
# (§4) Normally pigmented anagen VI hair follicles (HFs) (grey/white HFs were excluded from the study) were microdissected from normal human scalp skin and organ cultured following the Philpott model. Compound A or vehicle was administered once for each change of medium (i.e. every 48 h/72 h).
# A previously described protocol was used to investigate K19 expression (Kloepper et al., 2008). Briefly, acetone-fixed cryosections were pre-treated with goat serum (10% in Tris-buffered saline, Dako). The sections were incubated first with primary antibodies against K19 (mouse anti-human: K19-1:10; overnight, at 4° C.; PROGEN, Heidelberg, Germany;) and then with FITC-labeled goat anti-mouse (1:200 in TBS, for 45 min, RT, Jackson ImmunoResearch) immunoglobulins as secondary antibodies. Counterstaining was performed with DAPI (Boehringer Mannheim, Mannheim, Germany). The intensity of this immunostaining was quantified by ImageJ software (National Institutes of Health). The staining intensity of defined reference regions in the HF was measured and compared between control and Compound A-treated groups. The percentage of K19-positive cells in comparison to the total amount of cells in the ORS was calculated.
# Statistical analysis was performed using a two-tailed Student's t-test for unpaired samples. For meta-analysis purposes, a total of six assays (each with HFs from a different female individual) were run. […] In order to avoid data distortion by individual experiments, rigid exclusion criteria were defined that allowed to exclude one individual experiment (out of 5-6) per read-out parameter. Since these exclusion criteria differed for each study parameter, different experiments (i.e. one out of 6, and one out of 5 in the case of keratin 19 analysis) were excluded for each assay parameter. […]
# keratin K15 expression = assay: K15 quantitative immunohistochemistry in organ-cultured human scalp hair follicles; conditions: for Keratin-15 immunoreactivity: all concentrations tested, human anagen VI scalp HF organ culture, vs vehicle
# Procedure: as §3, §4
# To investigate keratin K15 expression, the tyramide signal amplification method was used as previously described (Kloepper et al., 2008). Briefly, acetone fixed cryosections were washed three times for 5 min using TNT (Tris-HCL NaCl Tween) buffer (0.1 mol/l Tris-HCl, pH 7.5; containing 0.15 mol/l NaCl and 0.05% Tween 20). Next, horseradish peroxidase was blocked by washing with 3% H2O2 in phosphate-buffered saline (PBS) for 15 min. Preincubation was performed with the incubation of avidin and biotin for 15 min and 5% goat normal serum in TNT for 30 min with washing steps in between. Mouse anti-human K15 (clone LHK15, Chemicon, Billerica, USA) was diluted in TNT and incubated overnight at 4° C. followed by a biotinylated secondary antibody goat anti-mouse (1:200 in TNT) for 45 min at RT. Next, streptavidin horseradish peroxidase (TSA kit; Perkin-Elmer, Boston, Mass., USA) was administered (1:100 in TNT) for 30 min at RT. […] The intensity of the immunostaining was quantified by ImageJ software (National Institutes of Health). The staining intensity of defined reference regions in the HF was measured and compared between control and N Compound A-treated groups. The percentage of K15-positive cells in comparison to the total amount of cells in the ORS was calculated.
# Statistical analysis was performed using a two-tailed Student's t-test for unpaired samples. […] In order to avoid data distortion by individual experiments, rigid exclusion criteria were defined that allowed to exclude one individual experiment (out of 5-6) per read-out parameter. […]
# [3] = system: human scalp hair follicles; assay: LDH measurement in supernatant of hair follicle organ culture (cytotoxicity); conditions: for LDH activity in the supernatant: 0.1 mM dose, day 6, pooled data
# Procedure: as §1
# LDH activity in the supernatant can serve as an indicator of cytotoxicity and was measured following the manufacturer's instructions (Cytotoxicity Detection Kit; Roche, Mannheim, Germany). The absorbance of the samples was measured at 490 nm using an ELISA plate-reader.
# as §2, with “parameter.” for “parameter. Since these exclusion criteria differed for each study parameter, different experiments (i.e. one out of 6) were excluded for each assay parameter.”
# [4] = listed as N-acetyl-(R)-(−)-3-(4-aminophenyl)-2-methoxypropionic acid
structure (smiles),measurement,setting,value
"CO[C@H](Cc1ccc(NC(C)=O)cc1)C(=O)O [Compound A, N-acetyl-(R)-(−)-3-(4-aminophenyl)-2-methoxypropionic acid]",hair shaft elongation,"[1]; high dose (1 mM), day 6, pooled data","slightly, but significantly, inhibited; also recorded: inhibits"
same,hair shaft elongation,"[1]; high dose (1 mM), day 6, pooled data, listed as N-acetyl-(R)-(−)-3-(4-aminophenyl)-2-methoxypropionic acid",inhibition
same,hair shaft elongation,[1]; lower concentrations (below 1 mM),did not have an effect
same,hair cycle effect (catagen induction),[2],induced catagen; also recorded: catagen-inducing effect
same,hair cycle effect (catagen induction),[2]; [4],trend toward catagen
same,Keratin 19 immunoreactivity,"K19 expression; all concentrations tested, vs vehicle",strongly stimulated
same,number of K19-positive cells relative to control,K19 expression,stimulating effect
same,number of K19-positive cells relative to control,K19 expression; [4],increased numbers
same,Keratin-15 immunoreactivity,keratin K15 expression,strongly stimulated
same,Keratin-15 immunoreactivity,keratin K15 expression; [4],stimulation
same,number of K15-positive cells,"keratin K15 expression; human scalp HF organ culture, cells in the ORS",did not increase
same,LDH activity in the supernatant,[3],slight increase
same,LDH activity in the supernatant,[3]; [4],increase
same,Compound-associated HF toxicity,"[3]; under assay conditions, from LDH activity","very low, if any"
